According to paper PMC9063808, “Structural insights into the calcium dependence of Stig cyclases” (RSC Advances, 2019):

Target: T1, FamC1 (Fischerella ambigua, UniProt A0A076N4W8, N137A)
T1 construct: gene ambU4; recombinant; homodimer in crystal
Experiment: X-ray crystallography, […] A
Conditions: Ca1 site empty, Ca2 bound; substrate-binding pocket; ligand came from the crystallization solution, not added on purpose

T1 sequence (A0A076N4W8 entry or part of it N137A): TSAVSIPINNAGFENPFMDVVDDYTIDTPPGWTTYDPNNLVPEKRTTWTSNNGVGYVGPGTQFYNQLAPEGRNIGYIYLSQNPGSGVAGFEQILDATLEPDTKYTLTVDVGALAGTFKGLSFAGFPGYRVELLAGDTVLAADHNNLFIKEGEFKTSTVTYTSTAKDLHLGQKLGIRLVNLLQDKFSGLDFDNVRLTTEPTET

N=C(N)NCCC[C@@H]1NC(=O)[C@H]2CCCN2C1=O [CI-4]
X-ray crystallography, 1.48 A: The N137A crystal was grown in the same crystallization condition and one molecule of CI-4
